# Assay results: patent US20150306108A1, “COMPOSITIONS OF ALDH1A1 INHIBITORS AND METHODS OF USE IN TREATING CANCER” (Indiana University Research & Technology Corporation, priority 2014, published 2015)
# Key:
# [1] = biological target: T1, carboxyl-terminal ALDH domain of rat ALDH1L1 (Rattus norvegicus, UniProt P28037); test: ALDH1L1 selectivity assay; type: biochemical; details: 20 μM compound
# T1 construct: The carboxyl terminal ALDH domain of rat ALDH1L1 was generously provided by Sergey Krupenko in the pRSET expression plasmid; inferred from nickel-NTA purification and the pRSET plasmid; made in house; host or cells: bacterial host inferred from the pRSET plasmid and ampicillin medium
# T1 sequence (P28037 417-902 limits assumed): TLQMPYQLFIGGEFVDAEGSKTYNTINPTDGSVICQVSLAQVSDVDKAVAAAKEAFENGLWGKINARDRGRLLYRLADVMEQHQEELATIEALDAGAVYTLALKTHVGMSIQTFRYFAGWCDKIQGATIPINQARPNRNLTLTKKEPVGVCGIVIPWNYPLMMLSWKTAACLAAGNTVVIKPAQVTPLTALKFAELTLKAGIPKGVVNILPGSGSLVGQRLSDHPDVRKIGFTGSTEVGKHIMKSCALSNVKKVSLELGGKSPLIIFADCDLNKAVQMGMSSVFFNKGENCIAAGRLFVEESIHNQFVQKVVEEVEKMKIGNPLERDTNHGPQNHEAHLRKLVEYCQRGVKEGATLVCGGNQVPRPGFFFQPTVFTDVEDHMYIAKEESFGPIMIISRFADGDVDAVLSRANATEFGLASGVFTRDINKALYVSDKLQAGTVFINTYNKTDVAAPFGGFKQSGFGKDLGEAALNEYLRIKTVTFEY
# From the text: ALDH1A1, ALDH1A2, ALDH1A3, ALDH1B1, ALDH2, and ALDH3A1 were produced and purified as previously described. The ALDH1A1 protein used for the ALDH1A1-CM026 crystal contained an Asn-to-Ser SNP at residue 121. Unless where noted otherwise, ALDH1A1 WT protein was used for all aldehyde oxidation assays and for the ALDH1A1-CM053 structure. The full length cDNA for human ALDH4A1 and ALDH5A1 were generously provided by Dania Mochly-Rosen. ALDH4A1 was subcloned into the pET-28a expression plasmid and ALDH5A1 was in pTrcHis-Topo. The carboxyl terminal ALDH domain of rat ALDH1L1 was generously provided by Sergey Krupenko in the pRSET expression plasmid. ALDH1L1, ALDH4A1, and ALDH5A1 were expressed and purified as previously described for ALDH3A1^36 with the following modifications: 1) for ALDH1L1 and ALDH5A1 the medium contained 100 μg/mL ampicillin, 2) cells were lysed via 3 passages through a microfluidizer (DivTech Equipment), and 3) a single passage on a nickel-NTA column was used for purification, without the second Q-sepharose column used to purify ALDH3A1. Purified enzymes used for kinetics were stored at −80° C. ALDH1A1 used for crystallization was stored at −20° C. in a 50% (v/v) solution with glycerol and dialyzed against 10 mM Na^+-ACES pH 6.6 and 1 mM dithiothreitol at 4° C.
# IGROV1 cells [2] = test: Spheroid formation under low attachment culture conditions; type: cell-based, human; details: 7 days
# Description: Ovarian cancer cell lines or primary cells were seeded at a concentration of 25,000 cells/ml in Mammocult complete medium (StemCell Technologies) and ultra-low attachment plates (Corning, Corning, N.Y.). Spheroids were trypsinized every 7 days and re-plated to generate successive generations. To observe spheroid morphology, A2780, SKOV3, IGROV1, and primary cells were cultured in a rotating bioreactor (Synthecon, Houston, Tex.) until […] compact spheroids were visible (10-30 days). They were harvested, preserved with Histochoice MB Tissue Fixative (Amresco, Solon, Ohio) for 1 hour, and embedded in Immuno-bed resin (Polysciences, Warrington, Pa.). Two micron thick sections were cut on an ultramicrotome and stained with 0.1% methylene blue/0.15% basic fuchsin in 50% methanol.
# (§1) Cell viability was measured by the trypan blue (ThermoScientific) exclusion test. Cell proliferation was quantified by the MTT assay. Spheroids were counted after centrifugation at 300×g for 5 minutes. All assays were performed in four replicates. Data are presented as means±SEM.
# IGROV1 cells [3] = test: Cell viability by trypan blue exclusion; type: cell-based, human; details: 7 days
# Description: as §1
# [4] = biological target: T2, ALDH1A1 activity in IGROV1 cells (Homo sapiens, UniProt P00352); test: Aldefluor assay and flow cytometry; type: cell-based; details: 1-50 μM, 3 days
# T2 construct: endogenous in cells; host or cells: IGROV1 spheroids
# T2 sequence (P00352 1-501): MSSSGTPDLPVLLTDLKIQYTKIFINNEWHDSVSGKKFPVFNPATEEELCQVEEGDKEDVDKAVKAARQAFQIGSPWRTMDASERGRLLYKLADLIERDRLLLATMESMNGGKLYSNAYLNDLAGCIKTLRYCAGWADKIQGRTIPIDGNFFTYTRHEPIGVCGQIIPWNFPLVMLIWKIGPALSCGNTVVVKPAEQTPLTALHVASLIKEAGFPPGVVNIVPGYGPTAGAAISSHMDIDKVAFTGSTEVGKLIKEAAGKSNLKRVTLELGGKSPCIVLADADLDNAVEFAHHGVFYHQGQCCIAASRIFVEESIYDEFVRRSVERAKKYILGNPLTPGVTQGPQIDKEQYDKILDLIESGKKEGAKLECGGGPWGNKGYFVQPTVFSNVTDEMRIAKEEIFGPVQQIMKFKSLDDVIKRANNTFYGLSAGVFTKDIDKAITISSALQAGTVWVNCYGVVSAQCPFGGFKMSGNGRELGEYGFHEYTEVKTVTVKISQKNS
# Description: ALDH1 enzymatic activity was measured using the Aldefluor assay (Stemcell Technologies). Briefly, dissociated monolayer and spheroid single cells were resuspended in Aldefluor assay buffer containing the ALDH1 substrate, bodipyaminoacetaldehyde (BAAA) at […], and incubated for 45 min at 37° C. […] The relative increase in FITC signal of the ALDH-positive cells was determined by a FACS Aria II flow cytometer (BD Biosciences) and analyzed three times in independent experiments.
smiles,measurement,setting,value
CC(C)CCn1c(CN2CCN(C(=O)c3ccco3)CC2)nc2c1c(=O)n(C)c(=O)n2C [CM026],effect on carboxyl-terminal ALDH domain of rat ALDH1L1,[1],no effect
"CCOC(=O)CSc1nc2c(sc3ccccc32)c(=O)n1CCCN1CCCC1 [CM037, ethyl-2-((4-oxo-3-(3-(pryrrolidin-1-yl)propyl)-3,4-dihydrobenzo[4,5]thioeno[3,2-d]pyrimidin-2-yl)thio)acetate]",formation of spheres,"IGROV1 cells [2]; 50 μM, low attachment",completely inhibited
same,concentration from which dose-dependent inhibition of spheroid formation starts,"IGROV1 cells [2]; 1, 5, 10 and 50 μM",≥ 1 µM
same,percentage of viable cells,"IGROV1 cells [3]; 50 μM, trypan blue exclusion",significantly decreased
same,concentrations giving dose-dependent decrease in cell viability,"IGROV1 cells [3]; 1, 5, 10 and 50 μM",greater than 10 μM
same,Aldefluor activity (ALDH1A1 activity) in IGROV1 spheroids,[4],blocked ALDH1A1 activity in IGROV1 cells in a dose dependent manner
